# Data as given in US20220202739A1, “ENDOCANNABINOID MIMETIC AND ANTI-INFLAMMATORY COMPOUND CONTAINING COMPOSITIONS, METHODS OF PREPARATION AND USES THEREOF” (priority 2019, published 2022).
# Legend:
# CNR2 = conditions: human skin keratinocytes, 10 uM, 24 hr
# Experimental: (§1) Cell cultures: A human skin keratinocyte cell culture (or cultures) is obtained through the ThermoFisher Scientific (Waltham, Mass.) or Promocell GmbH (Heidelberg, Germany). The initial culture was selected from one of the following, C055C, 3C0647, or
# (§2) C12003. The cell lines were derived from donors as follows: C055C: Single donor adult 3C0647: Single donor adult, lightly pigmented C12003: Single donor adult
# (§3) Culture media: Cells were grown in ready to use Keratinocyte Growth Medium 2 from Promocell GmbH (Heidelberg, Germany) containing basal media supplemented with Bovine Pituitary Extract 0.004 ml/ml, Epidermal Growth Factor (recombinant human) 0.125 ng/ml, Insulin (recombinant human) 5 μg/ml, Hydrocortisone 0.33 μg/ml, Epinephrine 0.39 μg/ml, Transferrin (recombinant human) 10 μg/ml, and CaCl2 0.06 mM. […] All cultures were incubated at 37° C. with 5% CO2 in a humidified chamber.
# (§4) Experimental phase: The experimental phase was carried out in accordance with the protocol set forth in the experimental phase section of Example 1.
# (§5) The genes tested: Tested genes were the same as tested in Example 1.
# (§6) Performance of custom microarray: Performance of custom microarray was carried out in accordance with the protocol set forth in the performance of custom microarray section of Example 1. […]
# CNR1 = conditions: human skin keratinocytes, 10 uM, 24 hr
# Experimental: as §1, §2, §3, §4, §5, §6
# PTGS1 = experiment: Gene expression custom microarray, human skin keratinocytes (Example 2): PTGS1; type: cell-based; conditions: 10 uM, 24 hr
# Experimental: as §1, §2, §3, §4, §5, §6
# TRPA1 = experiment: Gene expression custom microarray, human skin keratinocytes (Example 2): TRPA1; type: cell-based; conditions: 10 uM, 24 hr
# Experimental: as §1, §2, §3, §4, §5, §6
# TRPM8 = experiment: Gene expression custom microarray, human skin keratinocytes (Example 2): TRPM8; type: cell-based; conditions: 10 uM, 24 hr
# Experimental: as §1, §2, §3, §4, §5, §6
# PPARG = experiment: Gene expression custom microarray, human skin keratinocytes (Example 2): PPARG; type: cell-based; conditions: 10 uM, 24 hr
# Experimental: as §1, §2, §3, §4, §5, §6
# FAAH = experiment: Gene expression custom microarray, human skin keratinocytes (Example 2): FAAH; type: cell-based; conditions: 10 uM, 24 hr
# Experimental: as §1, §2, §3, §4, §5, §6
# MAGL = experiment: Gene expression custom microarray, human skin keratinocytes (Example 2): MAGL; type: cell-based; conditions: 10 uM, 24 hr
# Experimental: as §1, §2, §3, §4, §5, §6
# NFKB1 = experiment: Gene expression custom microarray, human skin keratinocytes (Example 2): NFKB1; type: cell-based; conditions: 10 uM, 24 hr
# Experimental: as §1, §2, §3, §4, §5, §6
# IL1A = experiment: Gene expression custom microarray, human skin keratinocytes (Example 2): IL1A; type: cell-based; conditions: 10 uM, 24 hr
# Experimental: as §1, §2, §3, §4, §5, §6
# TRPV1 [1] = experiment: Gene expression custom microarray, human skin keratinocytes (Example 2): TRPV1; type: cell-based; conditions: 10 uM, 24 hr
# Experimental: as §1, §2, §3, §4, §5, §6
# TRPV1 [2] = experiment: Gene expression custom microarray, human skin fibroblasts (Example 1): TRPV1; type: cell-based; conditions: 10 uM, 24 hr
# Text: Cell cultures: A human skin fibroblast cell culture (or cultures) was obtained through the Coriell Cell Repository from the National Institute on Aging Cell Repository (Camden, N.J.), or Promocell GmbH (Heidelberg, Germany). The initial culture was selected from the following cell lines: AG13066, AG11557, AG11796 or GM03651E. The cell lines were derived from donors as follows:
# Experimental phase: When the appropriate quantity of cells had been grown, they were detached as described above, but at the final step were seeded into each well of one or more 6 well dishes. Each well received 2 ml of the cell suspension so they were seeded equally. The dishes were returned to the incubator until 85-95% confluency was reached.
# It is at this stage that all wells were rinsed in PBS after aspirating the growth media. The compound(s) to be tested were previously mixed into a suitable solvent (e.g., DMSO or ethanol) that can be diluted to the desired concentration of test compound (10 μl) in the culture wells without exceeding maximum solvent concentrations and adversely effecting cell viability, and mixed with basal media. NOTE: Standard maximum levels of solvent are 0.1% for DMSO and 0.5% for ETOH. The concentration of each test compound is found in Tables 1 & 2.
# Every 2 wells on the 6 well plate served as a biological replicate for the purposes of RNA isolation and genetic expression evaluations making each 6 well dish an n=3 for the test compound(s) contained in the media. Negative control plates (no test compound(s) and only basal media) were also generated. The plates were returned to the incubator for 24 hrs.
# At the end of the 24 hr time period, the plates were removed from the incubator, the test media aspirated, and the cells rinsed with PBS. RNA isolation is performed using the BioRad Aurum Total RNA Mini Kit (Hercules, Calif.) per manufacturer's protocol; which is described, in brief, below: • Add 350 μl of lysis buffer to each well. Pipet multiple times to ensure thorough lysis. Add lysed cells to the collection tube. • Add 350 μl of 70% ETOH to the collection tube and mix thoroughly. • Pipet the generated lysate onto the spin column placed in a new 2 ml tube. Centrifuge for 30 sec between 8,000 and 10,000 g. • Place the spin column containing the now bound RNA, in a new 2 ml tube. Add 700 μl of low stringency wash solution to the spin column. Centrifuge for 30 sec between 8,000 and 10,000 g. […] Allow 1 minute for saturation of the membrane and then centrifuge for 2 minutes to complete the RNA elution. • Quantify the quantity of RNA and store at −20 C° until use (no more than 1 month) […]
Compound,"CNR2↑ gene expression, fold increase or decrease vs untreated cells (CNR2)","CNR1↑ gene expression, fold increase or decrease vs untreated cells (CNR1)","PTGS1↓ gene expression, fold increase or decrease vs untreated cells (PTGS1)","TRPA1↑ gene expression, fold increase or decrease vs untreated cells (TRPA1)","TRPM8↑ gene expression, fold increase or decrease vs untreated cells (TRPM8)","PPARG↑ gene expression, fold increase or decrease vs untreated cells (PPARG)","FAAH↓ gene expression, fold increase or decrease vs untreated cells (FAAH)","MAGL↓ gene expression, fold increase or decrease vs untreated cells (MAGL)","NFKB1↓ gene expression, fold increase or decrease vs untreated cells (NFKB1)","IL1A↓ gene expression, fold increase or decrease vs untreated cells (IL1A)","TRPV1↑ gene expression, fold increase or decrease vs untreated cells (TRPV1 [1])","TRPV1↑ gene expression, fold increase or decrease vs untreated cells (TRPV1 [2])"
"C=C(C)[C@@H]1CCC(C)=C[C@H]1c1c(O)cc(CCCCC)cc1O [CBD, cannabidiol, reference compound]",0 fold,2.6 fold,2.3 fold,−1.7 fold,2.5 fold,−4.7 fold,−3.1 fold,−2.3 fold,−1.3 fold,−1.8 fold,2.2 fold,–
CCCCCCCCCCCCCCCC(=O)NCCO [N-palmitoylethanolamide],–,–,–,–,–,–,–,–,–,–,–,−3.2 fold
